Experimental data reported in ChEMBL document CHEMBL4765237, “Structural optimization and structure-activity relationship studies of N-phenyl-7,8-dihydro-6H-pyrimido[5,4-b][1,4]oxazin-4-amine derivatives as a new class of inhibitors of RET and its drug resistance mutants” (Eur J Med Chem, 2018).
pIC50: −log10 of the molar value. The source made the active and inactive calls. No cut-off for these calls is given here.

Legend:
[1] = Growth inhibition of […] NIH3T3 cells incubated for 3 days by MTT assay; type: functional; settings: NIH3T3, 72 h; time 3 day
[2] = system: BaF3; experiment: Growth inhibition of mouse BaF3 cells incubated for 3 days by MTT assay; type: functional; settings: BaF3, 72 h, time 3 day
[3] = Growth inhibition of […] NIH3T3 cells harboring RET C634Y mutant incubated for 3 days by MTT assay; type: functional; settings: NIH3T3, 72 h; time 3 day
[4] = system: BaF3; type: functional; settings: Mus musculus, BaF3, 72 h; time 3 day
[5] = system: BaF3; experiment: Growth inhibition of mouse BaF3 cells harboring RET M918T mutant incubated for 3 days by MTT assay; type: functional; settings: BaF3, 72 h, time 3 day
[6] = system: BaF3; experiment: Growth inhibition of mouse BaF3 cells harboring RET V804M mutant incubated for 3 days by MTT assay; type: functional; settings: BaF3, 72 h, time 3 day
[7] = system: BaF3; experiment: Growth inhibition of mouse BaF3 cells over expressing wild type RET incubated for 3 days by MTT assay; type: functional; settings: BaF3, 72 h, time 3 day
[8] = Growth inhibition of human TT cells incubated for 10 days by MTT assay; type: functional; settings: 240 h, time 10 day
[9] = target: Proto-oncogene tyrosine-protein kinase receptor Ret (Homo sapiens, UniProt P07949, V804M)
[10] = target: Proto-oncogene tyrosine-protein kinase receptor Ret (Homo sapiens, UniProt P07949)
[11] = Toxicity in NOD-SCID mouse xenografted with […] cells harboring RET C634Y mutant assessed as reduction in body weight at 30 mg/kg, po administered for 18 days and measured on day 18; type: organism-based; settings: in vivo, 432 h, time 18 day
[12] = system: NIH3T3; settings: Homo sapiens, dose 30.0 mg/kg, time 18.0 day

Proto-oncogene tyrosine-protein kinase receptor Ret (Homo sapiens, UniProt P07949, V804M), sequence (P07949 29-1114 V804M limits assumed): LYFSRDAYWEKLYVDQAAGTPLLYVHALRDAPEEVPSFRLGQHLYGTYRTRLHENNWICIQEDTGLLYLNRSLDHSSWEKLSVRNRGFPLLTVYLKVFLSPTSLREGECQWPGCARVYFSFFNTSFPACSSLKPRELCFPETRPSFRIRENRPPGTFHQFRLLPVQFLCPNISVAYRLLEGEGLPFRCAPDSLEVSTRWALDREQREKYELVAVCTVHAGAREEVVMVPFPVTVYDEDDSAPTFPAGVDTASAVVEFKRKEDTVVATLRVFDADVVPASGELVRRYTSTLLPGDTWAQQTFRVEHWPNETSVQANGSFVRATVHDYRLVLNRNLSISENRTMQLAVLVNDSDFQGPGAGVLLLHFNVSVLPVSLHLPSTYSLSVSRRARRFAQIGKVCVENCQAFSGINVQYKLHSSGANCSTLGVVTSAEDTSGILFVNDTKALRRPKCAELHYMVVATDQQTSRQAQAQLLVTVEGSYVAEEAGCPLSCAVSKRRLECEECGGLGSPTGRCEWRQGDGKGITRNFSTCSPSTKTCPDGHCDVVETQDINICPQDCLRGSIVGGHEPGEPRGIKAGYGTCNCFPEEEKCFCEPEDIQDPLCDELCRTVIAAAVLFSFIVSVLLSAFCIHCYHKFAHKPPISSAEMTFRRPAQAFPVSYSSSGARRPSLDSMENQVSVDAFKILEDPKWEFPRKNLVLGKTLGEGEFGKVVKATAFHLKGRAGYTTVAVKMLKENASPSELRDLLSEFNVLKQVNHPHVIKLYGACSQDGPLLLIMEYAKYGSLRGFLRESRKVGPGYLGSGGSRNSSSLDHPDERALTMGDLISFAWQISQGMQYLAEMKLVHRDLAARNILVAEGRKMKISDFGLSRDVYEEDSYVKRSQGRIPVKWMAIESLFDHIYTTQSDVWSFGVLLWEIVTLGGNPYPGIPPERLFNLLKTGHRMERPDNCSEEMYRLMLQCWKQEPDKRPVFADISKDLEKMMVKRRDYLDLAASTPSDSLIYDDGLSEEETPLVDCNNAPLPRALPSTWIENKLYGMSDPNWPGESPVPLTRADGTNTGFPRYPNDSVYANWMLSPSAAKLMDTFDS
Proto-oncogene tyrosine-protein kinase receptor Ret (Homo sapiens, UniProt P07949), sequence (P07949 whole entry): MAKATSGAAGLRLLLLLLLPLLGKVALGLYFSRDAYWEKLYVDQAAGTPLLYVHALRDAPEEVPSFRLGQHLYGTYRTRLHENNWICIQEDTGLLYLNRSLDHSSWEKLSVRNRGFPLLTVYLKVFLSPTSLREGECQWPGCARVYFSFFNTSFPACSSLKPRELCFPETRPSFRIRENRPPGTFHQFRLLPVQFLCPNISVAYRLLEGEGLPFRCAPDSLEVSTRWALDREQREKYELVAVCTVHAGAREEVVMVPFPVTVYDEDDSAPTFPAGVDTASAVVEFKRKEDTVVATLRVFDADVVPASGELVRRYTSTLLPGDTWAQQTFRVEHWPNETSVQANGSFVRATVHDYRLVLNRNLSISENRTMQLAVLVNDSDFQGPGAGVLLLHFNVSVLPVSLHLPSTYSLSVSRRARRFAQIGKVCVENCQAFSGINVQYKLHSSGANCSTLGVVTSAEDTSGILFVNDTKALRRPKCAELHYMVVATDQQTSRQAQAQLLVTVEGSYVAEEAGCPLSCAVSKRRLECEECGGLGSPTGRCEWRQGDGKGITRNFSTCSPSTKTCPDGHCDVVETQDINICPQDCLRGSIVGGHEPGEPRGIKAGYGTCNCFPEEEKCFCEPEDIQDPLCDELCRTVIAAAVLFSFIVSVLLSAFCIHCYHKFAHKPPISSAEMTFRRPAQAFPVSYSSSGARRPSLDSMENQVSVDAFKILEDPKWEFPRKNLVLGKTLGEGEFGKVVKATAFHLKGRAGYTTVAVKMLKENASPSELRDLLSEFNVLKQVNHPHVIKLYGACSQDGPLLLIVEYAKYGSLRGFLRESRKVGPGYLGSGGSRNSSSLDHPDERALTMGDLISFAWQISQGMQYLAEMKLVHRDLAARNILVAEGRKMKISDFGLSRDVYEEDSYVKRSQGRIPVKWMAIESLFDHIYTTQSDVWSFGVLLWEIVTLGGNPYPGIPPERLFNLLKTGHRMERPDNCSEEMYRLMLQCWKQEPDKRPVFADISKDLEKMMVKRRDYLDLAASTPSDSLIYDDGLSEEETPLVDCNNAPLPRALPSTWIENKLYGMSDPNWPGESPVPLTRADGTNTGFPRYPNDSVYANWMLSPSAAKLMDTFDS

SMILES | GI50 [1] [µM] | GI50 [2] [µM] | GI50 [3] [µM] | GI50 [4] [µM] | GI50 [5] [µM] | GI50 [6] [µM] | GI50 [7] [µM] | GI50 [8] [µM] | pIC50 [9] | pIC50 [10] | Activity [11] | TGI [12]
O=C(Nc1ccc(Nc2ncnc3c2OCCN3)cc1)Nc1cc(Cl)cc(Cl)c1 | > 10 | 10 | 8.05 | > 10 | > 10 | > 10 | > 10 | > 10 | 5.89 | 6.06 | – | –
CC(C)(C)c1cc(NC(=O)Nc2ccc(Nc3ncnc4c3OCCN4)c(O)c2)no1 | > 10 | > 10 | 1.55 | 6.02 | 8.81 | 1.87 | 3.37 | 0.8 | 7.20 | 7.60 | – | –
COc1cc2nccc(Oc3ccc(NC(=O)C4(C(=O)Nc5ccc(F)cc5)CC4)cc3)c2cc1OC [CABOZANTINIB] | > 10 | 9.36 | 0.1 | 1.53 | 1.45 | 2.8 | 0.15 | 0.2 | – | – | Non-Toxic | Active
O=C(Nc1ccc(Nc2ncnc3c2OCCN3)cc1)Nc1ccc(Cl)c(C(F)(F)F)c1 | > 10 | > 10 | 2.29 | > 10 | 9.94 | > 10 | 3.07 | 1.99 | 6.73 | 6.75 | – | –
CN1CCOc2c(Nc3ccc(NC(=O)Nc4cc(C(C)(C)C)on4)cc3)ncnc21 | > 10 | > 10 | > 10 | > 10 | > 10 | > 10 | 8.06 | 4.86 | 6.46 | 6.49 | – | –
CN1CCCOc2c(Nc3ccc(NC(=O)Nc4cc(C(C)(C)C)on4)cc3)ncnc21 | > 10 | > 10 | 3.58 | > 10 | > 10 | > 10 | 3.89 | 1.6 | 6.15 | 6.49 | – | –
O=C(Nc1ccc(Nc2ncnc3c2OCCN3)cc1)Nc1cccs1 | > 10 | > 10 | > 10 | > 10 | > 10 | > 10 | > 10 | > 10 | 5.06 | < 5.00 | – | –
Cc1nc(Nc2ncnc3c2OCCN3)ccc1NC(=O)Nc1cc(C(C)(C)C)on1 | > 10 | > 10 | 10 | > 10 | > 10 | > 10 | > 10 | > 10 | 5.95 | 6.11 | – | –
CC(C)(C)c1cc(NC(=O)Nc2ccc(Nc3ncnc4c3OCCN4)c(F)c2)no1 | > 10 | 10 | 0.39 | 3.49 | 2.94 | 1.53 | 0.33 | 0.3 | 7.66 | 7.68 | – | –
O=C(Nc1ccc(Nc2ncnc3c2OCCN3)cc1)Nc1ccc(C(F)(F)F)cc1 | > 10 | 10 | 3.14 | > 10 | > 10 | 8.49 | 4.4 | 6.65 | 6.56 | 6.51 | – | –
Cc1cc(C)cc(NC(=O)Nc2ccc(Nc3ncnc4c3OCCN4)cc2)c1 | > 10 | > 10 | 7.08 | > 10 | > 10 | > 10 | > 10 | 5.65 | 6.01 | 5.97 | – | –
CC(C)(C)c1cc(NC(=O)Nc2ccc(Nc3ncnc4c3OCCN4)cc2F)no1 | > 10 | > 10 | 0.13 | 5.23 | 0.59 | 4.72 | 0.09 | 0.08 | 7.24 | 8.00 | – | –
O=C(Nc1ccc(Nc2ncnc3c2OCCN3)cc1)Nc1cccc(-c2ccccc2)c1 | > 10 | > 10 | 10 | > 10 | > 10 | > 10 | > 10 | > 10 | 5.12 | < 5.00 | – | –
CC(C)(C)c1cc(NC(=O)Nc2ccc(Nc3ncnc4c3OCCN4)nc2)no1 | > 10 | > 10 | 10 | > 10 | > 10 | > 10 | 4.12 | 2.56 | 6.74 | 7.11 | – | –
O=C(Nc1ccc(Br)cc1)Nc1ccc(Nc2ncnc3c2OCCN3)cc1 | > 10 | 10 | 8.92 | > 10 | > 10 | > 10 | > 10 | 10 | 5.63 | 5.65 | – | –
CC(C)(C)c1cc(NC(=O)Nc2cccc(Nc3ncnc4c3OCCN4)c2)no1 | > 10 | > 10 | > 10 | > 10 | > 10 | > 10 | > 10 | > 10 | 5.46 | 6.03 | – | –
CC(C)(C)c1csc(NC(=O)Nc2ccc(Nc3ncnc4c3OCCN4)cc2)n1 | > 10 | > 10 | > 10 | > 10 | > 10 | > 10 | > 10 | > 10 | 5.29 | 5.50 | – | –
Cc1cc(NC(=O)Nc2cc(C(C)(C)C)on2)ccc1Nc1ncnc2c1OCCN2 | > 10 | > 10 | 1.54 | 5.72 | 4.76 | 2.03 | 0.73 | 0.45 | 7.36 | 7.30 | – | –
CC(C)N1CCOc2c(Nc3ccc(NC(=O)Nc4cc(C(C)(C)C)on4)cc3)ncnc21 | > 10 | > 10 | 3.12 | 7.98 | 8.61 | 8.98 | 5.16 | 5.1 | 5.27 | 5.06 | – | –
COc1ccc(NC(=O)Nc2ccc(Nc3ncnc4c3OCCN4)cc2)cc1 | > 10 | > 10 | > 10 | > 10 | > 10 | > 10 | > 10 | 6.12 | 6.08 | 6.64 | – | –
COc1cc(NC(=O)Nc2cc(C(C)(C)C)on2)ccc1Nc1ncnc2c1OCCN2 | > 10 | > 10 | 2.7 | > 10 | > 10 | > 10 | 4.7 | 3.03 | 7.48 | 7.66 | – | –
O=C(Nc1ccc(Cl)cc1)Nc1ccc(Nc2ncnc3c2OCCN3)cc1 | > 10 | > 10 | > 10 | > 10 | > 10 | > 10 | > 10 | > 10 | 5.64 | 5.51 | – | –
CC(C)(C)c1cc(NC(=O)Nc2ccc(Nc3ncnc4c3OCCN4)cc2)no1 | > 10 | > 10 | 0.11 | 4.41 | 1.62 | 1.36 | 0.15 | 0.08 | 7.47 | 8.00 | – | –
CNC(=O)c1cc(Oc2ccc(NC(=O)Nc3ccc(Cl)c(C(F)(F)F)c3)cc2)ccn1 [SORAFENIB] | > 10 | 6.36 | 0.32 | 1.8 | 1.28 | 1.1 | 0.23 | 0.23 | – | – | Non-Toxic | Active
Cc1ccc(F)c(NC(=O)Nc2ccc(Nc3ncnc4c3OCCN4)cc2)c1 | > 10 | > 10 | 10 | > 10 | > 10 | > 10 | > 10 | 5.82 | 5.29 | 5.83 | – | –
O=C(Nc1ccc(Nc2ncnc3c2OCCN3)cc1)Nc1cccc2ccccc12 | > 10 | > 10 | > 10 | > 10 | > 10 | > 10 | > 10 | > 10 | < 5.00 | < 5.00 | – | –
COc1cc2/c(=N/c3ccc(Br)cc3F)nc[nH]c2cc1OCC1CCN(C)CC1 [VANDETANIB] | 7.15 | 8.41 | 0.34 | > 10 | 0.97 | > 10 | 0.46 | 0.14 | – | – | – | –
COc1cccc(NC(=O)Nc2ccc(Nc3ncnc4c3OCCN4)cc2)c1 | > 10 | > 10 | > 10 | > 10 | > 10 | > 10 | > 10 | > 10 | 5.28 | 5.17 | – | –
